Reference: ChEMBL document CHEMBL1147029, “Probing binding requirements of NAD kinase with modified substrate (NAD) analogues” (Bioorg Med Chem Lett, 2007)

target: T1, NAD kinase (Mycobacterium tuberculosis) (UniProt P9WHV7); assay: Inhibition of Mycobacterium tuberculosis NAD kinase at 2 mM
T1 sequence (whole entry): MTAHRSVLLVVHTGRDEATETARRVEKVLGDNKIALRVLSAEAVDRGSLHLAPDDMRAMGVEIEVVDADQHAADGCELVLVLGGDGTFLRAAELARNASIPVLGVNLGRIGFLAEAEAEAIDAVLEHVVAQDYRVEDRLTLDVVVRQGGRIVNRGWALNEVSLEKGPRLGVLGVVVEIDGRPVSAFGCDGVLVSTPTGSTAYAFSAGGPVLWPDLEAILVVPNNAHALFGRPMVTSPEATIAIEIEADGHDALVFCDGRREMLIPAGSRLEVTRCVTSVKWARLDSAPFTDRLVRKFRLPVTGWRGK

| Compound | inhibition |
| --- | --- |
| NC(=O)c1cccc([C@@H]2O[C@H](COP(=O)(O)OP(=O)(O)OC[C@H]3O[C@@H](n4cnc5c(N)ncnc54)[C@H](O)[C@@H]3O)[C@@H](O)[C@H]2O)c1 | 37% |

target: T1, NAD kinase (Mycobacterium tuberculosis); assay: Inhibition of Mycobacterium tuberculosis NAD kinase at 1 mM

| Compound | inhibition |
| --- | --- |
| O=C(CBr)c1cccnc1 | 30% |
| O=C(CBr)c1ccccn1 | 63% |
| O=C(CBr)c1ccncc1 | 40% |
| NC(=O)c1ccc[n+]([C@@H]2O[C@H](COP(=O)(O)OP(=O)(O)OC[C@H]3O[C@@H](n4cnc5c(N)ncnc54)[C@@H](O)[C@@H]3O)[C@@H](O)[C@H]2O)c1 | 40% |
| NC(=O)c1ccc[n+]([C@@H]2O[C@H](COP(=O)(O)OP(=O)(O)OC[C@H]3O[C@@H](n4cnc5c(N)ncnc54)[C@H](F)[C@@H]3O)[C@@H](O)[C@H]2O)c1 | < 10% |
| NC(=O)c1cccc([C@@H]2O[C@H](COP(=O)(O)OP(=O)(O)OC[C@H]3O[C@@H](n4cnc5c(N)ncnc54)[C@H](O)[C@@H]3O)[C@@H](O)[C@H]2O)c1 | < 10% |
| NC(=O)c1ccc[n+]([C@@H]2O[C@H](COP(=O)(O)OP(=O)(O)OC[C@H]3O[C@@H](n4cnc5c(N)ncnc54)[C@@H](F)[C@@H]3O)[C@@H](O)[C@H]2O)c1 | < 10% |
